{"source": "paper PMC4464647", "about": "“ANO1 (TMEM16A) in pancreatic ductal adenocarcinoma (PDAC)” (Pflugers Archiv, 2014)", "system": "HPDE, Capan-1, AsPC-1 and BxPC-3 cells", "assay": "Homogeneous caspases assay after gemcitabine treatment", "format": "cell-based, human", "settings": "T16Ainh-A01, 24 h", "method": "To assess cell proliferation and apoptosis, cells were plated in duplicates on a 96-well plate and incubated in 100 μl of the cell line appropriate media described above. Cells were transfected with siRNA soon after complete attachment (approx. 3 h after seeding). Cells were treated with vehicle, 20 μM gemcitabine, 20 μM T16Ainh-A01, or 10 μM free NS3728 (see below) after culture in a humidified 37 °C and 5 % CO2 incubator overnight. BrdU incorporation was measured using Cell Proliferation ELISA, BrdU (chemiluminescent) (Roche Diagnostics A/S, Denmark) following the manufacturer’s instructions. Caspases 3, 6, and 7 activation was evaluated using Homogeneous Caspases Assay (fluorimetric) (Roche Diagnostics A/S, Denmark). […]"}
{"smiles": "CCc1c(C)nc(SCC(=O)Nc2nc(-c3ccc(OC)cc3)cs2)[nH]c1=O", "note": "[T16Ainh-A01, 2-[(5-Ethyl-1,6-dihydro-4-methyl-6-oxo-2-pyrimidinyl)thio]-N-[4-(4-methoxyphenyl)-2-thiazolyl]acetamide]", "values": [{"measurement": "protection from apoptosis (Caspase-3 activity)", "result": "less pronounced"}]}
